No end group written: not given here.
What was measured:
Experiment in all cases: FP competition assay, displacement of SMAC-rhodamine
cIAP2-BIR2 = cIAP2-BIR2 (Homo sapiens, UniProt Q13489)
Protocol: (§1) Solutions for assessing SMAC-rhodamine binding to various BIR domains were empirically optimized. […] For cIAP1-BIR3, the assay buffer was 25 mM Hepes [pH 7.5] containing 40 mM β-glycerol phosphate, 1 mM TCEP, and 0.005% Tween 20, typically with 20 nM SMAC-rhodamine. For cIAP1-BIR2, cIAP2-BIR2 and cIAP2-BIR3, assays were performed in 25 mM Hepes [pH 7.5] containing 1 mM TCEP and 0.005% Tween 20, typically with 20 nM SMAC-rhodamine.
(§2) For cIAP1-BIR2, assays were conducted using 25 mM Hepes [pH 7.5] containing 1 mM TCEP, 0.005% Tween 20, ~1 μM cIAP1-BIR2, and 20 nM SMAC-rhodamine. For cIAP1-BIR3, assays were performed using the same buffered solution, except 40 mM β-glycerol phosphate was added and the cIAP1-BIR3 concentration was reduced to 50 nM. For cIAP2-BIR2, assays included a buffer containing 25 mM Hepes [pH 7.5] containing 1 mM TCEP, 0.005% Tween 20, 1 μM cIAP2-BIR2, and 20 nM SMAC-rhodamine. […] IC50 values were determined with a nonlinear fit using Prism software. Ki values were determined from the IC50 values using an online program developed by Nikolovska-Coleska et al. [26].

cIAP1-BIR3 = cIAP1-BIR3 (Homo sapiens, UniProt Q13490); settings: for Ki: cIAP1 BIR3 Ki, 25 mM Hepes pH 7.5, 1 mM TCEP, 0.005% Tween 20, 20 nM SMAC-rhodamine, 40 mM β-glycerol phosphate, ~50 nM protein, Ki calculated from IC50; for binding affinity for cIAP1 and cIAP2 compared with XIAP: estimated by relative Ki values, cIAP1 and cIAP2 vs XIAP
Sequence of cIAP1-BIR3 (Q13490 257-356): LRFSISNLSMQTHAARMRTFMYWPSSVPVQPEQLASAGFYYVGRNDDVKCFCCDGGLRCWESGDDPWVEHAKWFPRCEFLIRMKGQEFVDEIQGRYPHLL
Protocol: as §1, §2

cIAP1-BIR2 = cIAP1-BIR2 (Homo sapiens, UniProt Q13490)
Sequence of cIAP1-BIR2 (Q13490 144-260): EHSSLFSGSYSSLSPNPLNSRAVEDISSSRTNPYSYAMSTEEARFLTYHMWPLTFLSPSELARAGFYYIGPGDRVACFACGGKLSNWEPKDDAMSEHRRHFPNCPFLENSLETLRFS
Protocol: as §1, §2

cIAP2-BIR3 = cIAP2-BIR3 (Homo sapiens, UniProt Q13489)
Sequence of cIAP2-BIR3 (Q13489 243-333): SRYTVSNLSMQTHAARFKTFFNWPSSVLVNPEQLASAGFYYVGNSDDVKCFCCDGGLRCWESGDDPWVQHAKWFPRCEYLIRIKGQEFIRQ
Protocol: as §1, §2

Sequence of cIAP2-BIR2 (Q13489 129-246): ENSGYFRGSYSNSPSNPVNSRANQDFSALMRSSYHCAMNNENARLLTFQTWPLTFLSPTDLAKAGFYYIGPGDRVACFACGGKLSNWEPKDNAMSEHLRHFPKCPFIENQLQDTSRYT

Row | Ki (cIAP2-BIR2) | Ki (cIAP1-BIR3) | Ki (cIAP1-BIR2) | Ki (cIAP2-BIR3) | Compound | binding affinity for cIAP1 and cIAP2 compared with XIAP (cIAP1-BIR3)
1 | 6380 nM | 80 nM | 2160 nM | 190 nM | CN[C@@H](C)C(=O)N[C@@H](CC(=O)OC)C(=O)N1CCC[C@H]1C(=O)N[C@@H]1CCCc2ccccc21 [compound 6] | –
2 | 5460 nM | 200 nM | 3310 nM | 500 nM | CN[C@@H](C)C(=O)N[C@H](C(=O)N[C@@H](CCCCNC(=O)OCc1ccccc1)C(=O)N[C@@H]1CCCc2ccccc21)C(C)C [compound 12] | –
3 | 4790 nM | 850 nM | 2770 nM | 990 nM | CC(C)[C@H](NC(=O)[C@H](C)N)C(=O)N[C@@H](CCCNC(=O)OCc1ccccc1)C(=O)Nc1cccc2ccccc12 [compound 21] | –
4 | 2070 nM | 280 nM | 1410 nM | 220 nM | CN[C@@H](C)C(=O)N[C@H](C(=O)N[C@@H](CCCNC(=O)OCc1ccccc1)C(=O)N[C@@H]1CCCc2ccccc21)C(C)C [compound 10] | –
5 | > 56700 nM | 9400 nM | > 57200 nM | 12600 nM | CN[C@@H](C)C(=O)N[C@@H](CC(=O)O)C(=O)N1CCC[C@H]1C(=O)N[C@@H]1CCCc2ccccc21 [compound 7] | –
6 | 5270 nM | 60 nM | 2340 nM | 60 nM | CC[C@H](NC(=O)[C@H](C)NC)C(=O)N1CCC[C@H]1C(=O)N[C@@H]1CCCc2ccccc21 [compound 3] | higher affinity binding to cIAP1 and cIAP2 than XIAP
7 | 3750 nM | 90 nM | 1470 nM | 70 nM | CN[C@@H](C)C(=O)N[C@H](C(=O)N[C@@H](CCCN)C(=O)N[C@@H]1CCCc2ccccc21)C(C)C [compound 13] | –
8 | 22400 nM | 4370 nM | 8330 nM | 17200 nM | CC(C)[C@H](NC(=O)[C@@H](N)CO)C(=O)N[C@@H](C)C(=O)Nc1cccc2ccccc12 [compound 19] | –
9 | 4070 nM | 80 nM | 1260 nM | 150 nM | CN[C@@H](C)C(=O)N[C@@H](CCC(N)=O)C(=O)N1CCC[C@H]1C(=O)N[C@@H]1CCCc2ccccc21 [compound 8] | –
10 | 2080 nM | 40 nM | 1110 nM | 90 nM | CC[C@H](C)[C@H](NC(=O)[C@H](C)NC)C(=O)N1CCC[C@H]1C(=O)N[C@@H]1CCCc2ccccc21 [compound 2] | higher affinity binding to cIAP1 and cIAP2 than XIAP
11 | 5500 nM | 720 nM | 3250 nM | 550 nM | CN[C@@H](C)C(=O)N[C@H](C(=O)N[C@@H](CCC(N)=O)C(=O)N[C@@H]1CCCc2ccccc21)C(C)C [compound 11] | –

Row | Compound | Ki (cIAP2-BIR2) | Ki (cIAP1-BIR3) | Ki (cIAP1-BIR2) | Ki (cIAP2-BIR3) | binding affinity for cIAP1 and cIAP2 compared with XIAP (cIAP1-BIR3)
12 | AVPIAQK-NH2 [SMAC-7-mer, AVPIAQK, reference compound] | 26400 nM | 450 nM | 15400 nM | 420 nM | –
13 | CN[C@@H](C)C(=O)N[C@H](C(=O)N[C@@H](CCCN)C(=O)NNc1ccccc1)C(C)C [compound 32] | 10900 nM | 4010 nM | 3820 nM | 2170 nM | –
14 | CC(C)[C@H](NC(=O)[C@H](C)N)C(=O)N1CCC[C@H]1C(=O)NNc1ccccc1 [compound 36] | 12900 nM | 340 nM | 6110 nM | 570 nM | –
15 | CN[C@@H](C)C(=O)N[C@H](C(=O)N[C@@H](CCCCN)C(=O)NNc1ccccc1)C(C)C [compound 35] | 5090 nM | 2830 nM | 2180 nM | 1350 nM | –
16 | CN[C@@H](C)C(=O)N[C@H](C(=O)N1CCC[C@H]1C(=O)NNc1ccccc1)C(C)C [compound 22] | 5430 nM | 260 nM | 3620 nM | 560 nM | –
17 | CC(C)[C@H](NC(=O)[C@H](C)N)C(=O)N[C@@H](C)C(=O)Nc1cccc2ccccc12 [compound 17] | 5980 nM | 1230 nM | 3770 nM | 980 nM | –
18 | CN[C@@H](C)C(=O)N[C@H](C(=O)N[C@@H](CCCNC(=O)OCc1ccccc1)C(=O)NNc1ccccc1)C(C)C [compound 31] | 2930 nM | – | – | 1290 nM | –

— article PMC5019375, “Characterization of Potent SMAC Mimetics that Sensitize Cancer Cells to TNF Family-Induced Apoptosis” (PLoS ONE, 2016)
